From PubChem BioAssay (NCI)
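Five compound concentrations were applied to cells in 96-well plates for 48 hours; endpoints were derived by simple linear interpolation of the resulting dose-response curve. GI50 is the concentration that inhibits growth by half. TGI is the concentration that stops growth completely.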

Key:
Experiment in all cases: inhibition of tumour cell growth, NCI panel, 48 h
[1] = tested on: SR leukemia
[2] = tested on: UACC-62 melanoma
[3] = tested on: OVCAR-4 ovarian
[4] = tested on: OVCAR-8 ovarian
[5] = tested on: SNB-19 CNS
[6] = tested on: MDA-MB-435
[7] = tested on: SK-OV-3 ovarian
[8] = tested on: NCI-H460 lung
[9] = tested on: COLO 205 colon
[10] = tested on: MOLT-4 leukemia

| SMILES | TGI [1] [µM] | TGI [2] [µM] | TGI [3] [µM] | TGI [4] [µM] | TGI [5] [µM] | TGI [6] [µM] | TGI [7] [µM] | TGI [8] [µM] | TGI [9] [µM] | TGI [10] [µM] | GI50 [1] [nM] | GI50 [8] [nM] | GI50 [2] [nM] | GI50 [3] [nM] | GI50 [4] [nM] | GI50 [10] [nM] | GI50 [6] [nM] | GI50 [7] [nM] |
| --- | --- | --- | --- | --- | --- | --- | --- | --- | --- | --- | --- | --- | --- | --- | --- | --- | --- | --- |
| CN(C)c1ccc(C(=NN)c2ccc(N(C)C)cc2)cc1 | > 100 | > 100 | > 100 | > 100 | > 100 | 0.298 | > 85.5 |  |  |  |  |  |  |  |  |  |  |  |
| CC(C)CN(CC#N)CC(C)C |  | > 100 | > 100 | > 100 | > 100 | > 100 | > 100 | > 100 | > 100 | > 100 |  |  |  |  |  |  |  |  |
| NC(N)=NC(N)=Nc1ccccc1 (tested in a mixture with another compound) |  | > 100 | > 100 | > 100 | > 100 | > 100 | > 100 | > 100 | > 100 |  |  |  |  |  |  |  |  |  |
| CC(=O)OCC(OC(C)=O)C(OC(C)=O)C(OC(C)=O)C(/C=N\Nc1nc2ccccc2c(=O)[nH]1)=N/Nc1nc2ccccc2c(=O)[nH]1 (stereo unspecified) | > 100 | > 100 |  | > 100 | > 100 | > 100 | > 100 | > 100 | > 100 | > 100 |  |  |  |  |  |  |  |  |
| CCN(CC)CCNc1ccc2nnn3c4ccccc4c(=O)c1c23 | 5.44 | 20.4 | 13.7 | 18.6 | 40.3 |  | 62.5 | 6.27 | 16.2 | 6.7 |  |  |  |  |  |  |  |  |
| C[C@]12CC/C(=N\OCCN3CCCCC3)C=C1CCC1C2CC[C@@]2(C)C1CC[C@]2(C)O (stereo partly specified) |  | 24.8 | 76 | 27 | 30 | 6.71 | 35 | 17.5 | 20.9 | 6.84 |  |  |  |  |  |  |  |  |
| O=C(Nc1nc(C23CC4CC(CC(C4)C2)C3)cs1)c1cc2c(ccc3ccccc32)oc1=O | > 100 |  | > 100 | > 100 | > 100 | > 100 |  | > 100 | > 100 | > 100 |  |  |  |  |  |  |  |  |
| O=[As](O)(O)c1ccc2nc3cc([As](=O)(O)O)ccc3nc2c1 | > 100 | > 100 | > 100 | > 100 | > 100 | > 100 |  | > 100 |  | > 100 |  |  |  |  |  |  |  |  |
| Cc1ccc(C2CC(c3cccc(Nc4ccncc4)c3)=NN2c2ccccc2)cc1 (stereo unspecified) | 5.73 | 3.12 | 3.12 | 4.85 |  | 3.06 | 5.88 | 3.33 |  | 4.64 | 2070 | 1800 | 1710 | 1690 | 2190 | 1950 | 1640 | 2340 |
| Cn1c(-c2ccc(N=NNc3ccc(-c4n[nH]c(=S)n4C)cc3)cc2)n[nH]c1=S | > 100 |  | > 100 | 23.4 | 70.2 | > 100 | 54.9 |  | > 100 | > 100 |  |  |  |  |  |  |  |  |
| [O-][n+]1c(-c2ccccc2)c2nc3ccccc3nc2c2ccccc21 |  | > 100 | > 100 | > 100 | > 100 |  | > 100 | > 100 | > 100 | > 100 |  |  |  |  |  |  |  |  |
| CN(C)CCCNC(=O)c1cc(NC(=O)c2cc(NC(=O)[C@@H]3C[C@H]3C(=O)Nc3cc(C(=O)Nc4cc(C(=O)NCCCN(C)C)n(C)c4)n(C)c3)cn2C)cn1C | > 100 |  | > 100 | > 100 | > 100 | > 100 |  | > 100 | > 100 | > 100 |  |  |  |  |  |  |  |  |
| O=C(O)c1nccnc1C(=O)O | > 100 | > 100 | > 100 |  | > 100 |  | > 100 | > 100 | > 100 | > 100 |  |  |  |  |  |  |  |  |
| CCOC(=O)c1[nH]c2nc(SC)nc(Nc3ccccc3Cl)c2c1N |  | 84.7 | 60.3 | 36.5 | 44.5 | > 100 | 56.7 | 41.1 | > 100 | 30.5 |  |  |  |  |  |  |  |  |
| COc1cc2c(c(OC(C)=O)c1OC(C)=O)-c1ccc(SC)c(=O)cc1C(NC(C)=O)CC2 (stereo unspecified) | > 100 | > 100 | > 100 | 55.1 | > 100 |  | > 36 | 20 | 3.13 | > 100 |  |  |  |  |  |  |  |  |
| CCC(=O)NCCc1c2c3c(ccnc3c3ncsc13)-c1ccccc1N2 |  | > 67.1 | > 100 | > 71.1 | > 100 | > 64.5 | > 100 | 29.1 | > 100 | > 64.5 |  |  |  |  |  |  |  |  |
| O=c1[nH]c(=O)n(C/C=C/CBr)nc1Br | 14.1 | 27.3 | 22.9 | 29.9 | 28.1 | 27.2 |  | 37 | 27.8 | 43.3 |  |  |  |  |  |  |  |  |
